Measurements reported in patent US11613535B2, “Compounds for MYC inhibition” (THE SCRIPPS RESEARCH INSTITUTE, priority 2018, dated 2023).
Converted amounts (≈) assume the structure as drawn.

Legend:
[1] = PK analysis of 5g, 10 mg/kg i.v.; format: in vivo, C57BL/6 mice
Experimental: (§1) A 10 mg/kg i.v. PK study was conducted in mouse to determine if these favored properties translated into improved PK. Non-compartmental analysis of the mouse PK followed by allometric scaling to the rat afforded a comparison to the rat PK study conducted previously on 5a and is shown in Table 2.
PK analysis. Pharmacokinetic analysis of 5g was conducted by Explora Biolabs. 12 C57BL/6 (6 male, 6 female) mice were administered 5g at 10 mg/kg by IV injection. Blood samples were collected at 2 min and 0.08, 0.25, 0.5, 1, 2, 8 and 24 hours post-injection. Bioanalysis was conducted by Integrated Analytical Solutions by processing through a Shimadzu VP series 10 system LC followed by mass analysis on an Applied Biosystems/MDS SCIEX API 3000 triple quadrupole mass spectrometer. All procedures involving the care and use of animals was approved by the IACUC at Explora BioLabs.

MYC = target: T1, MYC (Homo sapiens, UniProt P01106); assay: MYC affinity assessment by Bio-FET concentration curve; format: binding; conditions: concentration for ½ Rmax, averaged across three chips
T1 construct: A His-tagged bHLH construct was immobilized on a chip for site-specific functionalization; made in house; host or cells: BL21 E. coli
T1 sequence (P01106 369-421 limits assumed): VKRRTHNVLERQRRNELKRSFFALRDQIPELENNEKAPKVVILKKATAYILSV
Experimental: as §1
(§2) FET functionalization and regeneration. FET experiments were conducted on an Agile R100 (Nanomedical Diagnostics) at ambient temperature. Chips were functionalized with Ni-NTA according to manufacturer protocols. Surface-bound Ni-NTA sites were then bound to His-tagged protein by 15 min incubation with ˜100 nM protein in 50 mM MES (pH 6.0). Ni-NTA functionalized chips were regenerated via treatment with 250 mM imidazole for 30 mins, followed by extensive washing in MES, then reintroduction of His-tagged protein.
MYC affinity assessment. […] Varying concentrations of 5g were allowed to equilibrate with MYC, and the Req values plotted against the concentration. […] This was repeated across three chips and the affinity averaged across those three runs.

[2] = test system: CEF transfected with ATG-MYC; assay: CEF focus assay (microtumor formation); format: cell-based, chicken; conditions: Measured in CEF transfected with ATG-MYC
Excerpt: The lead exemplified compound in the prior patent application is termed KJ-Pyr-9 herein. […] CEF assay.

His-tagged MYC = target: T2, His-tagged MYC (Homo sapiens, UniProt P01106); assay: Bio-FET relative binding studies; conditions: Relative to 5a Req; compounds at 10 μM in MES (pH 6.0) with 3% DMSO
T2 construct: A His-tagged bHLH construct was immobilized on a chip for site-specific functionalization; made in house; host or cells: BL21 E. coli
T2 sequence (P01106 369-421 limits assumed): as above
Experimental: (§3) Compound solubilities were measured by dynamic light scattering (Table 1). […] 2. Detection was conducted on a graphene surface. 3. A His-tagged bHLH construct was immobilized on a chip for site-specific functionalization. […] Compounds were also screened against a monomeric form of MAX (mMAX), as well as MYC-MAX and MAX-MAX dimers.
Protein expression and purification. His-tagged MYC, mMAX, MYC-MAX, and MAX-MAX constructs were expressed in BL21 E. coli cells and purified as previously described.^10
as §2, with “Surface-bound Ni-NTA sites were then bound to His-tagged protein by 15 min incubation with ˜100 nM protein in 50 mM MES (pH 6.0).” left out
Relative binding studies. Test compounds were dissolved to desired concentration in MES (pH 6.0) buffer with 3% DMSO. Protein-bound chips were initialized and rinsed in MES buffer with 3% DMSO. For relative binding studies, 6-8 test compounds (including 5a) were analyzed at 10 μM in a single run, and the Req determined and compared to that of 5a. Compounds were tested a minimum of three times across different chips.

[3] = Solubility analysis by dynamic light scattering; format: physicochemical
Experimental: as §3
Solubility analysis. Compounds were analyzed for solubility by dynamic light scattering on a DynaPro NanoStar detector (Wyatt Technology). Compounds were dissolved in MES (pH 6.0) from a 1000×DMSO stock at varying concentrations. Samples were analyzed for aggregation and the maximal concentration at which aggregates were not observed was used as the measure of solubility.

Row | SMILES | improvement in exposure (AUC) ([1]; 5g versus 5a) [fold] | mean residence time ([1]; 5g, 10 mg/kg i.v. mouse PK, comparison) [h] | AUC ([1]; 5g, 10 mg/kg i.v., C57Bl6 mice) | CI ([1]; 5g, 10 mg/kg i.v., C57Bl6 mice) [mL/min/kg] | Half-life ([1]; 5g, 10 mg/kg i.v., C57Bl6 mice) [h] | Vss ([1]; 5g, 10 mg/kg i.v., C57Bl6 mice) [L] | MRT ([1]; both sexes, C57BL/6, mouse, blood, iv, 5g, 10 mg/kg i.v., C57Bl6 mice) [h] | Kd (MYC) [µM] | IC50 ([2]; Gallus gallus) [µM] | FET Req (His-tagged MYC) [%] | Solubility ([3]; Measured by DLS in MES (pH 6.0) with <0.1% DMSO) [µM] | Solubility ([3]; pH 6) [µM] | IC50 [2] [µM]
1 | NC(=O)c1ccc(-c2cc(-c3ccc(-c4nccs4)cc3)nc(-c3ccco3)c2)cc1 [Compound 5g] | 30 | 4.8 | 44,000 ng*h/mL | 3.8 | 4.8 | 0.97 | 4.3 | 0.0125 ± 0.0041 | 5 | 97 | 125 (≈ 52.9 µg/mL) |  | 
2 | N#Cc1ccc(-c2cccc(-c3ccco3)n2)cc1 [Compound 7b] |  |  |  |  |  |  |  |  |  | 0 |  | 10 (≈ 2.46 µg/mL) | 
3 | N#Cc1ccc(-c2cc(-c3ccc(C(N)=O)cc3)ccn2)cc1 [Compound 7a] |  |  |  |  |  |  |  |  |  | 0 |  | 32 (≈ 9.58 µg/mL) | 10
